Results: patent US8541607B2, “Disulfide, sulfide, sulfoxide, and sulfone derivatives of cyclic sugars and uses thereof” (Lacer, S.A., priority 2003, dated 2013)

Assays:
[1] = system: platelet adhesion to HUVEC activated by LDLmm; test: Inhibition of platelet adhesion to HUVEC activated by LDLmm; type: cell-based, human; details: HUVEC activated by LDLmm (50 μg/ml); mean ± s.e.m.
Description: The methods used in the assays to determine the effect of the compounds on platelet and monocyte adhesion to human endothelial cells are substantially the same as described in the following references: • Del Maschio A. et al., J Cell Biol 1996; 135: 497-510 • Bombeli T. et al., Blood 1999; 93: 3831-3838 • Colomé C. et al; Atherosclerosis 2000; 149: 295-302; and • Martin-Satue M. at al; British Journal of Cancer 1999; 80; 1169-1174
The adhesion of the U937-monocyte cells to confluent human microvasculature endothelial cells (HMEC-1) activated by means of TNF-α (50 ng/ml) and the platelets to human umbilical endothelial cells (HUVEC) were the methods used to determine the inhibitory effect of compounds on cellular adhesion. The adhesion of monocytes previously labeled with calcein-2M (Molecular Probes) to HMEC-1 activated by TNF-α, was assessed by determination of the associated-cell fluorescence. The adhesion of washed human platelets previously labeled with MoAb against CD36-FITC to activated-HUVEC (50 μg/ml of LDL minimally modified, LDLmm) was determined by Laser Scanning Cytometry (LSC, Olympus) determining the associated-cell fluorescence. Results are expressed as the percentage of inhibition respect to control (adhesion of the cells in the absence of compounds).

[2] = system: heart (AVP-induced coronary vasoconstriction); test: In vivo protection against ischemia-reperfusion damage in the heart (arginine-vasopressin induced S-wave depression); details: p.o.; for S-wave decrement: 1 h before AVP 0.3 U/kg, vehicle 46.2 ± 4.9
Protocol: Experiments were performed according to the model previously described by Hirata Y at al (Journal of Cardiovascular Pharmacology, 1998, 31: 322-326)
After a food fasting period of 6 hours, animals were divided into groups of at least 8 animals each. Doses of products were given by oral sounding 1 h before the ischemia induction. Animals were anaesthetized with pentobarbital (40 mg/kg, i.p.) and the standard limb lead II electrocardiogram was recorded to detect the S-wave depression. 0.3 U/kg arginine-vasopressin (AVP) (Sigma Chemicals, St Louis, Mo., USA) was injected into the carotid artery to induce vasoconstriction of small coronary arteries and increase in coronary resistance. In all the groups received AVP 60 min after, the test drug. In all groups, after AVP injection of 10 minutes ECG recording was performed.
The results are shown in table 16 and are expressed as S-wave decrements (μvolts).

[3] = system: New Zealand White rabbits fed 1% cholesterol diet; test: Atherogenesis in rabbits fed on high cholesterol diet; type: in vivo, rabbit
Protocol: The method used is substantially the same as described in Shore B, Shore V., In: Day CE (ed) Atherosclerosis Drug Discovery, Plenum Press, New York and London, pp 123-141, 1976.
Twenty-one male New Zealand White rabbits (10 weeks old at the beginning of the protocol) were maintained under standardized conditions (22° C., 40% to 60% humidity) with regular day/night cycle and free access to water. The animals were randomly assigned to 1 of 3 groups. Group 1 (n=5) received standard maintenance diet for 75 days; group 2 (n=16) received the same diet but supplemented with 1% (wt/wt) cholesterol for 45 days. At the end of this period, group 2 was classified into two randomly groups. The treated-group (n=9) receiving for additional 30 days 1.9 mg/kg/day of compound 12 (maintaining the 1% cholesterol in its diet), and the non-treated group (n=[…]) receiving a diet with a 1% of cholesterol for additional 30 days.
Study variables included triglycerides and total cholesterol. Animals were euthanized on day 75 after the start of the protocol with pentobarbital i.v. The entire aorta was removed 1 or 2 cm into the iliac arteries and fixed in buffer phosphate 0.1 M (pH 7.4) with glutaraldehyde (4%). Macroscopic and microscopic analyses of the samples were performed in a blinded fashion. Aortas were dissected and stained with Red Oil. Adventitial fat was removed, and aortas were opened longitudinally, immersed in Red Oil solution for overnight, washed in propylenglycol and fixed onto a flat surface. Images of the aortas were taken with a standard camera. Subsequently, 3 sections were taken from the aortic arch area, the thoracic aorta, and at the abdominal aorta (renal orifices). Sections were paraffin-embedded, were cut with a microtome Ultracut (Spain) and stained conventionally with hematosiline eosin. Images of aortas stained with Red Oil and hematosiline eosin were taken with a standard camera. Images were imported into Photoshop (Adobe) with a AGFA slide scanner. By means of the procedure previously described by Lillie RD (Lillie, R. D., 1994, Stain Technology, vol. 19, pp 55) the surface of injury in all the aorta and the thickness of the intima in histological samples was determined. The surface or area of the atherosclerotic injury (evaluated from the stained aortas with the Red Oil) are determined by the number of pixels of the image turned to mm^2. The intima thickness of the arteria (evaluated from the stained histological samples with Haematosiline-Eosin) was quantified in mm in a similar way to that described the surface or area of the atherosclerotic injury. For it, the sections that contained injuries of fatty striae were selected and the thickness of the intima was determined (from the arterial media to endothelium). The mean thickness of the lesion area was assessed in representative sections per aortic quadrant, and the statistical mean was calculated.

[4] = system: apo E-deficient mouse (OLA129X C57/BL6J); test: Atherogenesis in apo E-deficient mouse on standard diet; type: in vivo; details: 5 mg/Kg/day, 12 weeks
Description: Preventing and curative effect on atherogenesis of the compounds it is investigated in apo E-deficient mouse fed on standard diet model. Male and female apo E-deficient mouse (OLA129X C57/BL6J) of three months old were fed on standard diet. The control group included 8 males and 7 females mouse, while the treated group consist of 8 males and 7 females mouse. All the animals had similar cholesterol and body weight at the beginning of the experiment. Both the control and the treated groups were studied for 12 weeks. The treated group received 5 mg/Kg/day of the compound (12).
Plasma lipid parameters (total cholesterol, HDL cholesterol and triglycerides) and oxidative stress (measured as 8-iso-prostaglandin F2α levels) were measured at predetermined intervals. After completion of the administration period, the thoracic aorta was isolated and stained to determine the area of the atherosclerotic injuries deposited in the internal wall of the blood vessel in according with the Red Oil method (Lillie, R. D., 1994, Stain Technology, vol. 19, pp 55).

[5] = 1.9 mg/kg/day for 30 days, 1% cholesterol diet, end, mean ± s.e.m.
[6] = treated group, basal, mean ± s.e.m.

SMILES: CC(=O)S[C@H]1CO[C@H]2[C@@H]1OC[C@H]2O[N+](=O)[O-] [(12), 2-acetylthio-isosorbide-5-mononitrate]
- % of inhibition to control, platelet adhesion [1]: 87.5% ± 5.1%
- Protection of S-wave decrement ([2]; 20 mg/kg): 52%
- S-wave decrement ([2]; 20 mg/kg): 22.6 ± 5.9 μV
- Protection of S-wave decrement ([2]; 100 mg/kg): 81%
- S-wave decrement ([2]; 100 mg/kg): 8.6 ± 2.8 μV
- Plasmatic Total cholesterol, End [3, 5]: 1461 ± 147 mg/dL
- Plasmatic Triglycerides, End [3, 5]: 347 ± 82 mg/dL
- influence upon lipid metabolism (plasma lipids vs control) ([3]; 1.9 mg/kg/day for 30 days, in words): did not influence upon lipid metabolism
- Plasmatic Total cholesterol, Basal [3, 6]: 33.3 ± 4.1 mg/dL
- Plasmatic Triglycerides, Basal [3, 6]: 121 ± 34 mg/dL
- levels of triglycerides in plasma (in words) [4]: decrease
- oxidative stress (in words) [4]: decrease
- HDL-cholesterol, Female ([4]; female, control 0.4 ± 0.1, mean ± s.d.): 0.48 ± 0.13 mmol/L
- Triglycerides, Female ([4]; female, control 1.9 ± 0.6, mean ± s.d.): 1.3 ± 0.2 mmol/L
- Total cholesterol, Female ([4]; female, control 9.5 ± 2, mean ± s.d.): 11.3 ± 1.5 mmol/L
- 8-iso-prostaglandin F2α, Female ([4]; female, oxidative stress, control 182 ± 19, mean ± s.d.): 99 ± 7 pg/mL
- HDL-cholesterol, Male ([4]; male, control 0.5 ± 0.15, mean ± s.d.): 0.47 ± 0.15 mmol/L
- Triglycerides, Male ([4]; male, control 2.6 ± 0.6, mean ± s.d.): 1.5 ± 0.4 mmol/L
- Total cholesterol, Male ([4]; male, control 14.3 ± 2, mean ± s.d.): 18 ± 3 mmol/L
- 8-iso-prostaglandin F2α, Male ([4]; male, oxidative stress, control 273 ± 19, mean ± s.d.): 101 ± 13 pg/mL
